Measured values: US20120121591A1 (priority 2009, published 2012)

Experiments:
Format in all cases: cell-based
[1] = system: IFN-g secretion from T cells in human whole blood; details: read-out: WB (IFNg) IC50 (nM, Avg)
[2] = system: IL-2 secretion from T cells in human whole blood; details: read-out: WB (IL-2) IC50 (nM, Avg)
hKv1.3 = hKv1.3 (Homo sapiens, UniProt P22001); experiment: cell-based; details: Kv1.3 (IWQ) IC50 (nM, Avg)
hKv1.3, sequence (P22001 whole entry): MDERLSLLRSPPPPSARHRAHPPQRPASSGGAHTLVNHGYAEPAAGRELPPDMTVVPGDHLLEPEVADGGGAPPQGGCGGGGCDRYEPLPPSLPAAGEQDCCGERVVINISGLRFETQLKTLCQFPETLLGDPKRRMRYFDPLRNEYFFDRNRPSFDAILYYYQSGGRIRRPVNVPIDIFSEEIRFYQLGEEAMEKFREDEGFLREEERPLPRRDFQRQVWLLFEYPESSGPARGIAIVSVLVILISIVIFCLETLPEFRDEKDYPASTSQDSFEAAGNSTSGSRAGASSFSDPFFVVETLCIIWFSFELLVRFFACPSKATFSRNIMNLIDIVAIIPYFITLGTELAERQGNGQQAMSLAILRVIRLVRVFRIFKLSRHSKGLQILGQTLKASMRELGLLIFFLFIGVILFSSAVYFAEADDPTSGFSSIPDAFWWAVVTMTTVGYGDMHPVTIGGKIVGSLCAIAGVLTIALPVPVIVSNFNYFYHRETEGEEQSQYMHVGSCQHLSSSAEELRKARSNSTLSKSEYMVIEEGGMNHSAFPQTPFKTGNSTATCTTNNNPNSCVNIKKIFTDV

SMILES	IC50 [1] [nM]	IC50 [2] [nM]	IC50 (hKv1.3) [nM]
CC[C@H](C)[C@@H]1NC(=O)[C@H]([C@@H](C)O)NC(=O)[C@H](CC(=O)O)NC(=O)[C@H](CCC(=O)O)NC(=O)[C@@H](NC(=O)[C@H](CO)NC(=O)[C@@H](N)CCCNC(=N)N)CSSC[C@@H](C(N)=O)NC(=O)[C@H]([C@@H](C)O)NC(=O)CNC(=O)[C@@H]2CSSC[C@@H]3NC(=O)[C@H](CCCCN)NC(=O)[C@H](Cc4ccccc4)NC(=O)[C@H](C)NC(=O)[C@H]([C@@H](C)O)NC(=O)[C@H](CSSC[C@H](NC(=O)[C@H](Cc4ccccc4)NC(=O)[C@H](Cc4cccc5ccccc45)NC(=O)[C@H](CC(C)C)NC(=O)[C@H](CCCNC(=N)N)NC(=O)[C@H](Cc4ccc(O)cc4)NC(=O)[C@H](CCCCN)NC(=O)[C@H](CCSC)NC(=O)[C@H](CO)NC(=O)[C@H](Cc4c[nH]cn4)NC(=O)[C@H](CCCCN)NC3=O)C(=O)N[C@@H](CCCCN)C(=O)N[C@@H](CCCNC(=N)N)C(=O)N[C@@H]([C@@H](C)O)C(=O)N2)NC(=O)[C@H](CCCNC(=N)N)NC(=O)[C@H](CO)NC(=O)[C@H](CCCCN)NC(=O)[C@@H]2CCCN2C1=O [[Glu4; Lys16,29;1-Na126;Arg30]ShK-amide]	0.598	0.712	0.384
CC[C@H](C)[C@@H]1NC(=O)[C@@H](NC(=O)[C@H](CO)NC(=O)[C@@H](N)CCCNC(=N)N)CSSC[C@@H](C(=O)O)NC(=O)[C@H]([C@@H](C)O)NC(=O)CNC(=O)[C@@H]2CSSC[C@@H]3NC(=O)[C@H](CCC(N)=O)NC(=O)[C@H](Cc4ccccc4)NC(=O)[C@H](C)NC(=O)[C@H]([C@@H](C)O)NC(=O)[C@H](CSSC[C@H](NC(=O)[C@H](Cc4ccccc4)NC(=O)[C@H](CO)NC(=O)[C@H](CC(C)C)NC(=O)[C@H](CCCNC(=N)N)NC(=O)[C@H](Cc4ccc(O)cc4)NC(=O)[C@H](CCCCN)NC(=O)[C@H](CCSC)NC(=O)[C@H](CO)NC(=O)[C@H](Cc4c[nH]cn4)NC(=O)[C@H](CCCCN)NC3=O)C(=O)N[C@@H](CCCNC(=N)N)C(=O)N[C@@H](CCCCN)C(=O)N[C@@H]([C@@H](C)O)C(=O)N2)NC(=O)[C@H](CCCNC(=N)N)NC(=O)[C@H](CO)NC(=O)[C@H](CCCCN)NC(=O)[C@@H]2CCCN2C(=O)[C@H](CCCCN)NC(=O)[C@H]([C@@H](C)O)NC(=O)[C@H](CC(=O)O)NC1=O [[Lys7]ShK]	13.5	4.67	0.792
CCCC[C@@H]1NC(=O)[C@H](CO)NC(=O)[C@H](Cc2c[nH]cn2)NC(=O)[C@H](CCC(=O)O)NC(=O)[C@@H]2CSSC[C@@H]3NC(=O)[C@H]([C@@H](C)O)NC(=O)[C@H](CCCCN)NC(=O)[C@H](CCCNC(=N)N)NC(=O)[C@H](CSSC[C@H](NC(=O)[C@H](CCCNC(=N)N)NC(=O)[C@H](CO)NC(=O)[C@H](CCCCN)NC(=O)[C@@H]4CCCN4C(=O)[C@H]([C@@H](C)CC)NC(=O)[C@H]([C@@H](C)O)NC(=O)[C@H](CC(=O)O)NC(=O)[C@H]([C@@H](C)CC)NC(=O)[C@@H](NC(=O)[C@H](CO)NC(=O)[C@@H](N)CCCNC(=N)N)CSSC[C@@H](C(N)=O)NC(=O)[C@H]([C@@H](C)O)NC(=O)CNC3=O)C(=O)N[C@@H]([C@@H](C)O)C(=O)N[C@@H](C)C(=O)N[C@@H](C)C(=O)N[C@@H](CCCCN)C(=O)N2)NC(=O)[C@H](Cc2ccccc2)NC(=O)[C@H](CO)NC(=O)[C@H](CC(C)C)NC(=O)[C@H](CCCNC(=N)N)NC(=O)[C@H](Cc2ccc(O)cc2)NC(=O)[C@H](CCCCN)NC1=O [[Glu18,Ala15,Lys16,Nle21]ShK-amide]	1.29	1.35	0.202
CCCC[C@@H]1NC(=O)[C@H](CO)NC(=O)[C@H](Cc2c[nH]cn2)NC(=O)[C@H](CCCCN)NC(=O)[C@@H]2CSSC[C@@H]3NC(=O)[C@H]([C@@H](C)O)NC(=O)[C@H](CCCCN)NC(=O)[C@H](CCCNC(=N)N)NC(=O)[C@H](CSSC[C@H](NC(=O)[C@H](CCCNC(=N)N)NC(=O)[C@H](CO)NC(=O)[C@H](CCC(=O)O)NC(=O)[C@@H]4CCCN4C(=O)[C@H]([C@@H](C)CC)NC(=O)[C@H]([C@@H](C)O)NC(=O)[C@H](CC(=O)O)NC(=O)[C@H]([C@@H](C)CC)NC(=O)[C@@H](NC(=O)[C@H](CO)NC(=O)[C@@H](N)CCCNC(=N)N)CSSC[C@@H](C(N)=O)NC(=O)[C@H]([C@@H](C)O)NC(=O)CNC3=O)C(=O)N[C@@H]([C@@H](C)O)C(=O)N[C@@H](C)C(=O)N[C@@H](Cc3ccccc3)C(=O)N[C@@H](CCCCN)C(=O)N2)NC(=O)[C@H](Cc2ccccc2)NC(=O)[C@H](CO)NC(=O)[C@H](CC(C)C)NC(=O)[C@H](CCCNC(=N)N)NC(=O)[C@H](Cc2ccc(O)cc2)NC(=O)[C@H](CCCCN)NC1=O [[Glu9, Lys16,Nle21]ShK-amide]	0.342	0.257	0.263
CC[C@H](C)[C@@H]1NC(=O)[C@@H](NC(=O)[C@H](CO)NC(=O)[C@@H](N)Cc2cccc3ccccc23)CSSC[C@@H](C(=O)O)NC(=O)[C@H]([C@@H](C)O)NC(=O)CNC(=O)[C@@H]2CSSC[C@@H]3NC(=O)[C@H](CCC(N)=O)NC(=O)[C@H](Cc4ccccc4)NC(=O)[C@H](C)NC(=O)[C@H]([C@@H](C)O)NC(=O)[C@H](CSSC[C@H](NC(=O)[C@H](Cc4ccccc4)NC(=O)[C@H](CO)NC(=O)[C@H](CC(C)C)NC(=O)[C@H](CCCNC(=N)N)NC(=O)[C@H](Cc4ccc(O)cc4)NC(=O)[C@H](CCCCN)NC(=O)[C@H](CCSC)NC(=O)[C@H](CO)NC(=O)[C@H](Cc4c[nH]cn4)NC(=O)[C@H](CCCCN)NC3=O)C(=O)N[C@@H](CCCNC(=N)N)C(=O)N[C@@H](CCCCN)C(=O)N[C@@H]([C@@H](C)O)C(=O)N2)NC(=O)[C@H](CCCNC(=N)N)NC(=O)[C@H](CO)NC(=O)[C@H](CCCCN)NC(=O)[C@@H]2CCCN2C(=O)[C@H]([C@@H](C)CC)NC(=O)[C@H]([C@@H](C)O)NC(=O)[C@H](CC(=O)O)NC1=O [[1-Nal1]ShK]	0.247	0.222	0.225
CC[C@H](C)[C@@H]1NC(=O)[C@@H](NC(=O)[C@H](CO)NC(=O)[C@@H](N)CCCNC(=N)N)CSSC[C@@H](C(=O)O)NC(=O)[C@H]([C@@H](C)O)NC(=O)[C@H](CCCNC(=N)N)NC(=O)[C@@H]2CSSC[C@@H]3NC(=O)[C@H](CCC(N)=O)NC(=O)[C@H](Cc4ccccc4)NC(=O)[C@H](C)NC(=O)[C@H]([C@@H](C)O)NC(=O)[C@H](CSSC[C@H](NC(=O)[C@H](Cc4ccccc4)NC(=O)[C@H](CO)NC(=O)[C@H](CC(C)C)NC(=O)[C@H](CCCNC(=N)N)NC(=O)[C@H](Cc4ccc(O)cc4)NC(=O)[C@H](CCCCN)NC(=O)[C@H](CCSC)NC(=O)[C@H](CO)NC(=O)[C@H](Cc4c[nH]cn4)NC(=O)[C@H](CCCCN)NC3=O)C(=O)N[C@@H](CCCNC(=N)N)C(=O)N[C@@H](CCCCN)C(=O)N[C@@H]([C@@H](C)O)C(=O)N2)NC(=O)[C@H](CCCNC(=N)N)NC(=O)[C@H](CO)NC(=O)[C@H](CCCCN)NC(=O)[C@@H]2CCCN2C(=O)[C@H]([C@@H](C)CC)NC(=O)[C@H]([C@@H](C)O)NC(=O)[C@H](CC(=O)O)NC1=O [[Arg33]ShK]	0.232	0.068	0.102
